IC50 data for 29 molecules are collected here from US11446287B2, “Compounds and methods for EP300 or CBP modulation and indications therefor” (Opna Immuno-Oncology SA, priority 2019, dated 2022).

pIC50: −log10 of the molar value.

This assay deals with T1, Recombinant human BRD4 containing dual bromodomains (BRD4-BD12 (1-477)) (Homo sapiens, UniProt O60885).
T1 construct: Recombinant human BRD4 containing dual bromodomains (BRD4-BD12 (1-477)); made in house; host or cells: E. coli BL21-CodonPlus (DE3), modified pET vector
Description: BRD4 Alphascreen binding assay. A digest of the protocol:
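His-tagged human BRD4 tandem bromodomains (1-477, E. coli) incubated 1 h at room temperature with biotinylated tetra-acetylated H4 (1-21) peptide and compound in HEPES pH 7.5 buffer with 2 mM DTT. AlphaScreen signal read 30 min after adding beads (7.5 μg/ml); IC50 from four-parameter fit after normalization to controls.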
With `Cc1noc(C)c1-c1cnc2c(-c3cc(C(=O)O)ccc3Cl)c(C(F)(F)F)n([C@@H](C)c3ccccn3)c2c1` [P-0257, (S)-4-chloro-3-(6-(3,5-dimethylisoxazol-4-yl)-1-(1-(pyridin-2-yl)ethyl)-2-(trifluoromethyl)-1H-pyrrolo[3,2-b]pyridin-3-yl)benzoic acid], the pIC50 was 3.00 to 5.10. Under `CCOc1cc(C(=O)O)cc(OCC)c1-n1cc(-c2cnn(CS(C)(=O)=O)c2)c2ncc(-c3c(C)noc3C)cc21` [P-0258, 4-(6-(3,5-dimethylisoxazol-4-yl)-3-(1-((methylsulfonyl)methyl)-1H-pyrazol-4-yl)-1H-pyrrolo[3,2-b]pyridin-1-yl)-3,5-diethoxybenzoic acid] stands 5.10 to 6.00; under `CCOc1cc(C(=O)O)cc(OCC)c1-n1cc(-c2cn(C(C)C)nc2C)c2ncc(-c3c(C)noc3C)cc21` [P-0259, 4-(6-(3,5-dimethylisoxazol-4-yl)-3-(1-isopropyl-3-methyl-1H-pyrazol-4-yl)-1H-pyrrolo[3,2-b]pyridin-1-yl)-3,5-diethoxybenzoic acid], 5.10 to 6.00; under `CCOc1cc(C(=O)O)cc(OCC)c1-n1cc(-c2cnn(CC(C)(C)O)c2)c2ncc(-c3c(C)noc3C)cc21` [P-0260, 4-(6-(3,5-dimethylisoxazol-4-yl)-3-(1-(2-hydroxy-2-methylpropyl)-1H-pyrazol-4-yl)-1H-pyrrolo[3,2-b]pyridin-1-yl)-3,5-diethoxybenzoic acid], 5.10 to 6.00. Turning to `CCOc1cc(C(=O)O)cc(OCC)c1-n1cc(-c2cnn(C(F)F)c2)c2ncc(-c3c(C)noc3C)cc21` [P-0261, 4-(3-(1-(difluoromethyl)-1H-pyrazol-4-yl)-6-(3,5-dimethylisoxazol-4-yl)-1H-pyrrolo[3,2-b]pyridin-1-yl)-3,5-diethoxybenzoic acid], the pIC50 is 5.10 to 6.00. Then `CCOc1cc(C(=O)O)cc(OCC)c1-n1cc(-c2cnn(CCN(C)C)c2)c2ncc(-c3c(C)noc3C)cc21` [P-0262, 4-(3-(1-(2-(dimethylamino)ethyl)-1H-pyrazol-4-yl)-6-(3,5-dimethylisoxazol-4-yl)-1H-pyrrolo[3,2-b]pyridin-1-yl)-3,5-diethoxybenzoic acid], with 5.10 to 6.00. For `CCOc1cc(C(=O)O)cc(OCC)c1-n1cc(-c2cn(C)nc2C)c2ncc(-c3c(C)noc3C)cc21` [P-0263, 4-(3-(1,3-dimethyl-1H-pyrazol-4-yl)-6-(3,5-dimethylisoxazol-4-yl)-1H-pyrrolo[3,2-b]pyridin-1-yl)-3,5-diethoxybenzoic acid], the pIC50 was 5.10 to 6.00. Under `CCOc1cc(C(=O)O)cc(OCC)c1-n1cc(-c2cnn(CC3CC3)c2)c2ncc(-c3c(C)noc3C)cc21` [P-0264, 4-(3-(1-(cyclopropylmethyl)-1H-pyrazol-4-yl)-6-(3,5-dimethylisoxazol-4-yl)-1H-pyrrolo[3,2-b]pyridin-1-yl)-3,5-diethoxybenzoic acid] stands 5.10 to 6.00; under `CCOc1cc(C(=O)O)cc(OCC)c1-n1cc(-c2cnn(C3CC3)c2)c2ncc(-c3c(C)noc3C)cc21` [P-0265, 4-(3-(1-cyclopropyl-1H-pyrazol-4-yl)-6-(3,5-dimethylisoxazol-4-yl)-1H-pyrrolo[3,2-b]pyridin-1-yl)-3,5-diethoxybenzoic acid], 5.10 to 6.00. As for `CCOc1cc(C(=O)O)cc(OCC)c1-n1cc(-c2cnn(CCC#N)c2)c2ncc(-c3c(C)noc3C)cc21` [P-0266, 4-(3-(1-(2-cyanoethyl)-1H-pyrazol-4-yl)-6-(3,5-dimethylisoxazol-4-yl)-1H-pyrrolo[3,2-b]pyridin-1-yl)-3,5-diethoxybenzoic acid], the pIC50 was 5.10 to 6.00.

Consider `CCOc1cc(C(=O)O)cc(OCC)c1-n1cc(-c2cnn(CC(=O)N(C)C)c2)c2ncc(-c3c(C)noc3C)cc21` [P-0267, 4-(3-(1-(2-(dimethylamino)-2-oxoethyl)-1H-pyrazol-4-yl)-6-(3,5-dimethylisoxazol-4-yl)-1H-pyrrolo[3,2-b]pyridin-1-yl)-3,5-diethoxybenzoic acid], for which the pIC50 is 5.10 to 6.00. Under `Cc1noc(C)c1-c1cnc2c(c1)c(-c1cc(C(=O)O)ccc1OC(F)(F)F)cn2-c1ccc(F)cc1F` [P-0268, 3-(1-(2,4-difluorophenyl)-5-(3,5-dimethylisoxazol-4-yl)-1H-pyrrolo[2,3-b]pyridin-3-yl)-4-(trifluoromethoxy)benzoic acid] stands 5.10 to 6.00; under `Cc1noc(C)c1-c1cnc2c(-c3ccc(F)cc3F)cn(-c3c(OC(C)C)cc(C(=O)O)cc3OC(C)C)c2c1` [P-0269, 4-(3-(2,4-difluorophenyl)-6-(3,5-dimethylisoxazol-4-yl)-1H-pyrrolo[3,2-b]pyridin-1-yl)-3,5-diisopropoxybenzoic acid], 5.10 to 6.00; under `CCOc1cc(C(=O)O)cc(OCC)c1-n1cc(CC2CCC2)c2ncc(-n3c(C)nnc3C)cc21` [P-0270, 4-(3-(cyclobutylmethyl)-6-(3,5-dimethyl-4H-1,2,4-triazol-4-yl)-1H-pyrrolo[3,2-b]pyridin-1-yl)-3,5-diethoxybenzoic acid], 3.00 to 5.10.

For `CCOc1cc(C(=O)O)cc(OCC)c1-n1cc(C2CCC(F)(F)CC2)c2ncc(-c3c(C)noc3C)cc21` [P-0271, 4-(3-(4,4-difluorocyclohexyl)-6-(3,5-dimethylisoxazol-4-yl)-1H-pyrrolo[3,2-b]pyridin-1-yl)-3,5-diethoxybenzoic acid], the pIC50 was 3.00 to 5.10. In the case of `Cc1noc(C)c1-c1cnc2c(c1)c(-c1cnn(CC(=O)O)c1)cn2-c1ncccc1C#CC1CC1` [P-0272, 2-(4-(1-(3-(cyclopropylethynyl)pyridin-2-yl)-5-(3,5-dimethylisoxazol-4-yl)-1H-pyrrolo[2,3-b]pyridin-3-yl)-1H-pyrazol-1-yl)acetic acid], the negative logarithm of the IC50 (pIC50) is 3.00 to 5.10. Regarding `Cc1noc(C)c1-c1cnc2c(c1)c(-c1ccc(C(=O)O)cc1OC(F)F)cn2-c1ccccc1` [P-0273, 3-(difluoromethoxy)-4-(5-(3,5-dimethylisoxazol-4-yl)-1-phenyl-1H-pyrrolo[2,3-b]pyridin-3-yl)benzoic acid], the pIC50 was 5.10 to 6.00. Then `Cc1noc(C)c1-c1cnc2c(-c3ccccc3)cn(-c3cc(C(=O)O)ccc3OC(F)(F)F)c2c1` [P-0274, 3-(6-(3,5-dimethylisoxazol-4-yl)-3-phenyl-1H-pyrrolo[3,2-b]pyridin-1-yl)-4-(trifluoromethoxy)benzoic acid], with 5.10 to 6.00. In the case of `Cc1noc(C)c1-c1cnc2c(c1)c(-c1ccc(C(=O)O)cc1OC(C)C)cn2-c1ccccc1` [P-0275, 4-(5-(3,5-dimethylisoxazol-4-yl)-1-phenyl-1H-pyrrolo[2,3-b]pyridin-3-yl)-3-isopropoxybenzoic acid], the pIC50 is 5.10 to 6.00. Then `Cc1noc(C)c1-c1cnc2c(c1)c(-c1ccc(C(=O)O)cc1OC1CCC1)cn2-c1ccccc1` [P-0276, 3-cyclobutoxy-4-(5-(3,5-dimethylisoxazol-4-yl)-1-phenyl-1H-pyrrolo[2,3-b]pyridin-3-yl)benzoic acid], with 5.10 to 6.00; and `Cc1noc(C)c1-c1cnc2c(c1)c(-c1ccc(C(=O)O)cc1OCC(F)F)cn2-c1ccccc1` [P-0277, 3-(2,2-difluoroethoxy)-4-(5-(3,5-dimethylisoxazol-4-yl)-1-phenyl-1H-pyrrolo[2,3-b]pyridin-3-yl)benzoic acid], with 5.10 to 6.00.

`Cc1noc(C)c1-c1cnc2c(c1)c(-c1ccc(C(=O)O)cc1OCC(F)(F)F)cn2-c1ccccc1` [P-0278, 4-(5-(3,5-dimethylisoxazol-4-yl)-1-phenyl-1H-pyrrolo[2,3-b]pyridin-3-yl)-3-(2,2,2-trifluoroethoxy)benzoic acid]: the pIC50 is 5.10 to 6.00. As to `Cc1noc(C)c1-c1cnc2c(c1)c(-c1ccc(C(=O)O)cc1OC(F)(F)F)cn2-c1ccc(F)cc1` [P-0279, 4-(5-(3,5-dimethylisoxazol-4-yl)-1-(4-fluorophenyl)-1H-pyrrolo[2,3-b]pyridin-3-yl)-3-(trifluoromethoxy)benzoic acid], the pIC50 was 5.10 to 6.00.

As to `Cc1noc(C)c1-c1cnc2c(c1)c(-c1cnn(CC(=O)O)c1)cn2C(C1CC1)C1CC1` [P-0280, 2-(4-(1-(dicyclopropylmethyl)-5-(3,5-dimethylisoxazol-4-yl)-1H-pyrrolo[2,3-b]pyridin-3-yl)-1H-pyrazol-1-yl)acetic acid], the pIC50 is 3.00 to 5.10. Then `Cc1noc(C)c1-c1cnc2c(c1)c(-c1ccc(C(=O)O)cc1OC(F)(F)F)cn2-c1cnc(N2CCC2)nc1` [P-0281, 4-(1-(2-(azetidin-1-yl)pyrimidin-5-yl)-5-(3,5-dimethylisoxazol-4-yl)-1H-pyrrolo[2,3-b]pyridin-3-yl)-3-(trifluoromethoxy)benzoic acid], with 5.10 to 6.00.

Take `Cc1noc(C)c1-c1cnc2c(c1)c(-c1ccc(C(=O)O)cc1OC(F)(F)F)cn2-c1ccc(S(C)(=O)=O)cc1` [P-0282, 4-(5-(3,5-dimethylisoxazol-4-yl)-1-(4-(methylsulfonyl)phenyl)-1H-pyrrolo[2,3-b]pyridin-3-yl)-3-(trifluoromethoxy)benzoic acid]: the pIC50 was 6.00 to 10.00. Turning to `Cc1noc(C)c1-c1cnc2c(c1)c(-c1c(Cl)cc(C(=O)O)cc1OC(C)C)cn2C(C1CC1)C1CC1` [P-0283, 3-chloro-4-(1-(dicyclopropylmethyl)-5-(3,5-dimethylisoxazol-4-yl)-1H-pyrrolo[2,3-b]pyridin-3-yl)-5-isopropoxybenzoic acid], the pIC50 was 5.10 to 6.00. Under `Cc1noc(C)c1-c1cnc2c(c1)c(-c1cc(C(=O)O)ccc1OC(F)(F)F)cn2C(C1CC1)C1CC1` [P-0284, 3-(1-(dicyclopropylmethyl)-5-(3,5-dimethylisoxazol-4-yl)-1H-pyrrolo[2,3-b]pyridin-3-yl)-4-(trifluoromethoxy)benzoic acid] stands 3.00 to 5.10. Take `Cc1noc(C)c1-c1cnc2c(c1)c(-c1ccc(C(=O)O)cc1OC(F)(F)F)cn2[C@H]1CCOC1` [P-0285, (S)-4-(5-(3,5-dimethylisoxazol-4-yl)-1-(tetrahydrofuran-3-yl)-1H-pyrrolo[2,3-b]pyridin-3-yl)-3-(trifluoromethoxy)benzoic acid]: the pIC50 was 3.00 to 5.10.

One may read the pIC50 as the IC50 on a negative log10 scale, so that one unit is a factor of ten.
